This is an account of results in ChEMBL document CHEMBL4196067, “Indole in the target-based design of anticancer agents: A versatile scaffold with diverse mechanisms” (Eur J Med Chem, 2018).

In one test the test system is Jurkat. As to the kind of experiment: Antiproliferative activity against human Jurkat cells by alamar blue assay. It is filed as functional. In general terms: The colour change of resazurin is a common sign of viable cells or microbes.
The next test concerns HuT78. As to the kind of experiment: Antiproliferative activity against human HUT78 cells by alamar blue assay. Type of test: functional.
In the next test the test system is CCRF-HSB-2. Kind of test: Antiproliferative activity against human HSB2 cells by alamar blue assay. Type of test: functional.
For the next test, the system named is MOLT-4. Kind of test: Antiproliferative activity against human MOLT4 cells by alamar blue assay. It is filed as functional.
For test [1], the target named is Sigma non-opioid intracellular receptor 1 (Cavia porcellus, UniProt Q60492). As to the kind of experiment: Displacement of [3H]-(+)-pentazocine from sigma-1 receptor in guinea pig brain membranes after 180 mins by scintillation counting method. Type of test: cell membranes, Membrane. For orientation: Loss of bound radioactivity is the signal in a displacement assay; it reports binding, not function.

For test [2], the target named is T1, Sigma intracellular receptor 2 (Rattus norvegicus, UniProt Q5U3Y7).
T1 sequence (Q5U3Y7 whole entry): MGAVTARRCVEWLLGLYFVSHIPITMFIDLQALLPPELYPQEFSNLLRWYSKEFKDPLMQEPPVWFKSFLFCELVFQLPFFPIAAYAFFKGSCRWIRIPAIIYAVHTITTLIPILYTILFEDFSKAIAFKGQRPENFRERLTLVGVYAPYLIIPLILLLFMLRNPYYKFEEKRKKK
As to the kind of experiment: Displacement of [3H]-di-o-tolylguanidine from sigma-2 receptor in rat liver membranes after 180 mins by scintillation counting method. It is filed as cell membranes, Membrane.

Test [3] relates to MCF7. Kind of test: Antiproliferative activity against human MCF7 cells after 72 hrs by SRB assay. It is filed as functional, cell-based. To be noted: MCF7, 72 h.
Test [4] concerns the target Serine/threonine-protein kinase pim-1 (Homo sapiens, UniProt P11309). Kind of test: Inhibition of PIM1 (unknown origin).
The test system of a further test is HT-1080. Kind of test: Antiproliferative activity against human HT1080 cells. Type of test: functional, cell-based.
The next test has as its system MDA-MB-435. Kind of test: Antiproliferative activity against human MDA435 cells. It is filed as functional, cell-based.
The test system of the next test is P388. Kind of test: Antiproliferative activity against mouse P388 cells. Type of test: functional, cell-based.
For the next test, the target named is Histone deacetylase 1 (Homo sapiens, UniProt Q13547). As to the kind of experiment: Inhibition of HDAC1 (unknown origin).
The next test relates to HCT-116. Kind of test: Antiproliferative activity against human HCT116 cells. Type of test: functional, cell-based.
Another test has as its system LoVo. Kind of test: Antiproliferative activity against human LoVo cells. It is filed as functional, cell-based.
Another test concerns K562. Kind of test: Antiproliferative activity against human K562 cells. Type of test: functional, cell-based.
The subject of test [5] is MCF7. As to the kind of experiment: Antiproliferative activity against human MCF7 cells. It is filed as functional, cell-based.
Another test relates to HepG2. Kind of test: Antiproliferative activity against human HepG2 cells. Type of test: functional, cell-based.

≈ marks a conversion by molar mass, not a printed value.

Serine/threonine-protein kinase pim-1, sequence (P11309 whole entry): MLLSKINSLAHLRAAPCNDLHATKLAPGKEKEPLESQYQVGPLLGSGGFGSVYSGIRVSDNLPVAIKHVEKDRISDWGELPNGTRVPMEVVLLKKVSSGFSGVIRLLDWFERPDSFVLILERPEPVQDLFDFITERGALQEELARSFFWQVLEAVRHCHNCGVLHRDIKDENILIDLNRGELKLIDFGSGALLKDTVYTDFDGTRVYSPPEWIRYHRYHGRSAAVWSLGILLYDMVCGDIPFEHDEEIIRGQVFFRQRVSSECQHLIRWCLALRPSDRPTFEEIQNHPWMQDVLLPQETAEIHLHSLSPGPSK
Histone deacetylase 1, sequence (Q13547 whole entry): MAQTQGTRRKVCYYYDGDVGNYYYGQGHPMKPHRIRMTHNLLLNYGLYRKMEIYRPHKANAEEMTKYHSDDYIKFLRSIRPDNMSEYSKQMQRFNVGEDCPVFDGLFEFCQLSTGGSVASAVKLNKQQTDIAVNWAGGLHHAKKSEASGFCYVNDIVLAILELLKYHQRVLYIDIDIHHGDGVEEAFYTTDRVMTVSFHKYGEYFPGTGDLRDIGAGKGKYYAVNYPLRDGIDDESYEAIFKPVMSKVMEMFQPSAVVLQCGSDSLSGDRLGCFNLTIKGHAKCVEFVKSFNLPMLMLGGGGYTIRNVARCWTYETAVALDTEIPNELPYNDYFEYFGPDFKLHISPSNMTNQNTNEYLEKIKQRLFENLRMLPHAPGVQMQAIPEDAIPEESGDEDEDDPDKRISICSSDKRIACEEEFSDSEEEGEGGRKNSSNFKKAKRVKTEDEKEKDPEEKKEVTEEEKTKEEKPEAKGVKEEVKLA
Sigma non-opioid intracellular receptor 1, sequence (Q60492 whole entry): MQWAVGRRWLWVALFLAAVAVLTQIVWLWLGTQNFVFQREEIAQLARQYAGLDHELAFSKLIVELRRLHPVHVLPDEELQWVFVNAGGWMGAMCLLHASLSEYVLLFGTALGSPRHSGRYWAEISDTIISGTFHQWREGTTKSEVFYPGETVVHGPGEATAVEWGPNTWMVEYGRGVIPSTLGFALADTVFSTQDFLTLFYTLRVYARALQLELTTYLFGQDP

The term GI50 denotes the concentration that inhibits growth by half. Low values mean greater sensitivity of the cells, high ones lower sensitivity of the cells. In the case of `COc1ccc(Cn2ccc3ccc(C(=O)NO)cc32)cc1`, the GI50 in the test on Jurkat, with HuT78, in the test with CCRF-HSB-2 and in the test on MOLT-4 was 2400 to 4000 nM in each case.
In general, Ki refers to a measure of affinity in units of concentration, obtained from inhibition or displacement. By IC50 is commonly meant the concentration that inhibits the measured activity by half. With `Clc1ccc(CN2CCN(Cc3c[nH]c4ccccc34)CC2)cc1Cl`, the Ki in [1] and in test [2] was at most 130 nM in each case. This compound also gave an IC50 with MCF7 [3] of 2920 nM.
Consider `Cc1cn(CN2CCN(CCc3ccccc3)CC2)c2ccccc12`, for which affinity in test [2] was put at a Ki of 55.8 nM.
On to `CCN(CC)CCCOc1cc(-c2ccc3[nH]cc(-c4ccnc(N)n4)c3c2)nc(N)n1`, for which the midpoint of inhibition in test [4], the IC50, lay at 67 nM.
As to `O=C(CCCCCCNC(=O)c1cc2ccccc2[nH]1)NO`, the IC50 with HT-1080 worked out at 140 nM; in the test with MDA-MB-435, 150 nM.
Consider `CN(C)CCCOc1cc(-c2ccc3[nH]cc(-c4ccnc(N)n4)c3c2)nc(N)n1`, for which the midpoint of inhibition in test [4], the IC50, lay at 58 nM.
`Fc1ccccc1N1CCN(CCCn2ccc3ccccc32)CC1` displayed a Ki in [2] of 9.9 nM.
In the test with P388, `N[C@@H]1CSCON2CCc3c([nH]c4cc(Br)ccc34)[C@H]12` gave an IC50 of 0.01 µg/mL (≈ 0.0282 µM).
For the compound `COc1ccc2[nH]cc(Cn3cc(COc4ccc(/C=C/C(=O)NO)cc4OC)nn3)c2c1`, the IC50 against Histone deacetylase 1 was 78 nM; in the test on HCT-116, 3570 to 6210 nM; with LoVo it was 3570 to 6210 nM; with K562, 3570 to 6210 nM; with MCF7 [5], 3570 to 6210 nM; in the test on HepG2, 3570 to 6210 nM.
